Legend:
[1] = molecular target: T1, ERbeta receptor (PanVera) (Homo sapiens, UniProt Q92731); experiment: ER competition binding assay (3H-Estradiol), ERbeta; conditions: IC50 converted to Ki by Cheng-Prusoff; 3H-Estradiol competition; A = class at 10 microMolar; read-out: Ki (ERβ)
T1 construct: purchased PanVera
Description: (§1) Competition binding assay is run in a buffer containing 50 mM Hepes, pH 7.5, 1.5 mM EDTA, 150 mM NaCl, 10% glycerol, 1 mg/ml ovalbumin and 5 mM DTT, using 0.025 μCi per well ^3H-Estradiol(NEN #NET517 at 118 Ci/mmol, 1 mCi/ml), 10 ng/well ERAlpha or ERbeta receptor (PanVera). Competing compounds are added at 10 different concentrations. Non-specific binding is determined in the presence of 1 μM of 17-B Estradiol. The binding reaction (140 μl) is incubated for 4 hours at room temperature, then 70 μl of cold DCC buffer is added to each reaction (DCC buffer contains per 50 ml of assay buffer, 0.75 g of charcoal (Sigma) and 0.25 g of dextran (Pharmacia)). Plates are mixed 8 minutes on an orbital shaker at 4° C. Plates are then centrifuged at 3,000 rpm at 4° C. for 10 minutes. An aliquot of 120 μl of the-mix is transferred to another 96-well, white flat bottom plate (Costar) and 175 μl of Wallac Optiphase “Hisafe 3” scintillation fluid is added to each well. Plates are sealed and shaken vigorously on an orbital shaker. After an incubation of 2.5 hrs, read plates in a Wallac Microbeta counter. […] The Kd for ^3H-Estradiol is determined by saturation binding to ER alpha and ER beta receptors. The IC50 values for compounds are converted to Ki using Cheng-Prusoff equation and the Kd determined by saturation binding assay.

[2] = tested on: MCF-7 breast adenocarcinoma cells; experiment: MCF-7 Proliferation Assay; assay type: cell-based; conditions: antagonist mode, E2 10 pM, 14C-thymidine, B = class at 1 micromolar; for IC50: Homo sapiens, MCF7
Description: MCF-7 Proliferation Assay
MCF-7 breast adenocarcinoma cells (ATCC HTB 22) are maintained in MEM (minimal essential medium, phenol red-free, Gibco BRL) supplemented with 10% fetal bovine serum (FBS) (VN), L-glutamine (2 mM), sodium pyruvate (1 mM), HEPES ((N-[2-hydroxyethyl]piperazine-N′-[2-ethanesulfonic acid]) 10 mM}, non-essential amino acids(0.1 mM)and Penicillin Streptomycin(1×). Seven days prior to assay, MCF-7 cells are switched to assay media which is the same as maintenance medium except supplemented with 10% dextran-coated charcoal-stripped fetal bovine serum (DCC-FBS) assay medium in place of 10% FBS. MCF-7 cells are removed from flasks using 10× Trypsin EDTA (phenol red free, Gibco BRL) and diluted to 1× in (Ca++/Mg++ free HBSS (phenol red-free). Cells are adjusted to 80,000 cells/ml in assay medium. Approximately 8,000 cells (100 μl) are added to each well in 96 well Cytostar T scintillation plates (Amersham) and incubated at 37° C. in a 5% CO2 humidified incubator for 24 hours to allow cell adherence and equilibration after transfer. Serial dilutions of drugs are prepared in assay medium at 4× the final desired concentration). A 50 μl aliquot of drug dilutions (at 4× the final assay concentration) is transferred to duplicate wells followed by 50 μl assay medium for the agonist mode or 50 μl of 40 pM of E2 for the antagonist mode to a final volume of 200 μl. For each of the agonist plates, a basal level (media) and a maximum stimulated level (with 1 μM E2) is determined. For each of the antagonist plates, a basal level (media) and a E2 (10 pM) alone control is determined. After an additional 48 hours at 37° C. in a 5% CO2 humidified incubator, 20 μl of assay medium containing 0.01 μCi of ^14C-thymidine (52 mCi/mmol, […], Amersham) is added to each well. The plates are incubated overnight in the same incubator and then counted on the Wallac Microbeta counter. […] For the agonist mode, an EC50 and percent of maximum E2 stimulation and concentration of maximum stimulation is calculated.

[3] = tested on: Ishikawa human endometrial tumor cells; experiment: Ishikawa Alkaline Phosphatase Assay; assay type: cell-based; conditions: for EC50 / IC50: Homo sapiens, Ishikawa; for EC50 / Agonist % Eff: agonist mode; for IC50 / % Eff: antagonist mode; for IC50: with E2 (1 nM); for Agonist % Eff: % efficacy versus the response to Tamoxifen; for % Eff: % efficacy versus E2 (1 nM) alone
Excerpt: Ishikawa Alkaline Phosphatase Assay
Ishikawa human endometrial tumor cells are maintained in MEM (minimum essential medium, with Earle's salts and L-Glutamine, Gibco BRL, Gaithersburg, Md.), supplemented with 10% fetal bovine serum (FBS) (V/V), (Gibco BRL). One day prior to assay, growth media is changed to assay medium, DMEM/F-12 (3:1) (Dulbecco's Modified Eagle Medium: Nutrient Mixture F-12, 3:1 Mixture, phenol red-free, Gibco BRL) supplemented with 5% dextran coated charcoal stripped fetal bovine serum (DCC-FBS) (Hyclone, Logen, Utah), L-Glutamine (2 mM), MEM sodium pyruvate (1 mM), HEPES (N-[2-hydroxyethyl]piperazine-N′-[2-ethanesulfonic acid] 2 mM) all from Gibco BRL). After an overnight incubation, ishikawa cells are rinsed with Dulbecco's
Phosphate Buffered Saline (1×) (D-PBS) without Ca^+2 and Mg^+2 (Gibco BRL), and typsinized by a 3 minute incubation with 0.25% Trypsin/EDTA, phenol red-free (Gibco BRL). Cells are resuspended in assay medium and adjusted to 250,000 cells/ml. Approximately 25,000 cells in a 100 ul media are added to flat-bottom 96 wells microculture plates (Costar 3596) and incubated at 37° C. in a 5% CO2 humidified incubator for 24 hours. The next day, serial dilutions of compounds are prepared in assay medium (at 6 times the final concentration in the assay). The assay is run in dual mode, agonist and antagonist modes. For the agonist mode, plates receive 25 μl/well of assay medium followed by 25 μl/well of diluted compounds (at 6× the final concentrations). For the antagonist mode, plates receive 25 μl/well of 6 nM E2 (β-Estradiol, Sigma, St. Louis, Mo.) followed by 25 μl/well of diluted compounds (at 6× the final concentrations). After an additional 48-hour incubation at 37° C. in a 5% CO2 humidified incubator, media is aspirated from wells and 100 μl fresh assay medium is added to each microculture. Serial dilutions of compounds are prepared and added to the cells as described above. After an additional 72 hour incubation at 37° C. in a 5% CO2 humidified incubator, the assay is quenched by removing media and rinsing plates twice in Dulbecco's Phosphate Buffered Saline (1×) (D-PBS) (Gibco BRL). The plates are dried for 5 min and frozen at −70° C. for at least 1 hour. The plates are then removed from the freezer and allowed to thaw at room temperature. To each well, 100 μl of 1-Step™ PNPP (Pierce Chemical Company, Rockford, Ill.) is added. After a 20-minute incubation, plates are read on a spectophotometer at 405 nm. The data is fitted to a linear interpolation to derive EC50 (for agonist mode) or IC50 (for antagonist mode) values. For the agonist mode, a % efficacy for each compound is calculated versus the response to Tamoxifen. For the antagonist mode, a % efficacy for each compound is calculated versus E2 (1 nM) alone.

[4] = molecular target: T2, ERAlpha receptor (PanVera) (Homo sapiens, UniProt P03372); experiment: ER competition binding assay (3H-Estradiol), ERalpha; conditions: IC50 converted to Ki by Cheng-Prusoff; 3H-Estradiol competition; A = class at 10 microMolar; read-out: Ki (ERα)
T2 construct: purchased PanVera
T2 sequence (P03372 1-595): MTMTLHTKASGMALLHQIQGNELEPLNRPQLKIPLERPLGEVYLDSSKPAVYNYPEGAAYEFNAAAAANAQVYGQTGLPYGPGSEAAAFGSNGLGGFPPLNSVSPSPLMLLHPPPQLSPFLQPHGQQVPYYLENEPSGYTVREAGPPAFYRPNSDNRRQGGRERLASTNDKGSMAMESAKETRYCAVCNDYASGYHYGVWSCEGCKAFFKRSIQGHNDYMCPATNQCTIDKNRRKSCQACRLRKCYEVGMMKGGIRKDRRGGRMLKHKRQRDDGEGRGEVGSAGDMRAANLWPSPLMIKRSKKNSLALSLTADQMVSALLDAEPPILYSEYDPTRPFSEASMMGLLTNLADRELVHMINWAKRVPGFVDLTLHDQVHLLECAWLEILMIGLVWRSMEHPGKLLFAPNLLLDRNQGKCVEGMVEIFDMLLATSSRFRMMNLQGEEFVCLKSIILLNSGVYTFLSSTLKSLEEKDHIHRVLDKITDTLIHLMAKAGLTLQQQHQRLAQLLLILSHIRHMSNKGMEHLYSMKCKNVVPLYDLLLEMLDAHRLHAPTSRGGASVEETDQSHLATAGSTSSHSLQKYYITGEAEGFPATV
Description: as §1

T1 sequence (Q92731 whole entry): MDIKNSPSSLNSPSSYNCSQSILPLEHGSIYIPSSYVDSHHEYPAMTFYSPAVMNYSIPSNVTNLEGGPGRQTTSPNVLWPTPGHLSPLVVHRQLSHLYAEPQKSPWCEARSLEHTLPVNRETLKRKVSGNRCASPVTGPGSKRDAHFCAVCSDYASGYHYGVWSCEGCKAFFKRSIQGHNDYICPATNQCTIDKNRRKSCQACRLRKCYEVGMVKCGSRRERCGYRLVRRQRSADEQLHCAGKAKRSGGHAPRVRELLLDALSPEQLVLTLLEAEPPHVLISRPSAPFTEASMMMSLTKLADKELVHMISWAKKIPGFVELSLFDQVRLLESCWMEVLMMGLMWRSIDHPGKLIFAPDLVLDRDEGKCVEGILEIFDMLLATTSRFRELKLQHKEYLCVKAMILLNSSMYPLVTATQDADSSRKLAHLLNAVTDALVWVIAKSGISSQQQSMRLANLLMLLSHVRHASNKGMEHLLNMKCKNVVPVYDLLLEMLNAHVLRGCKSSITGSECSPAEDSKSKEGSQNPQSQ

Structure (SMILES) | Ki [1] [nM] | IC50 [2] [nM] | EC50 [3] [nM] | IC50 [3] [nM] | Agonist % Eff [3] [%] | % Eff [3] [%] | Ki [4] [nM] | IC50 (MCF7) [2]
Oc1cccc(C2CCc3cc(O)ccc3N2Cc2ccc(OCCN3CCCCC3)cc2)c1 (stereo not drawn) [Example 12, 2-(3-Hydroxy-phenyl)-1-[4-(2-piperidin-1-yl-ethoxy)-benzyl]-1,2,3,4-tetrahydro-quinolin-6-ol] | 5.9 | 385 | 142 | 892 | 29 | 31 | – | –
O=C(c1ccc(OCCN2CCCCC2)cc1)N1c2ccc(O)cc2CCC1c1ccccc1 (stereo not drawn) [Example 4] | – | – | 84.8 | 667 | 44 | 47 | 28.9 | –
O=C(c1ccc(OCCN2CCCCC2)cc1)N1c2ccc(O)cc2CCC1c1ccc(O)cc1 (stereo not drawn) [Example 3] | 1160 | 989 | 239 | – | 29 | 17 | 87.8 | –
Oc1ccc(C2CCc3cc(O)ccc3N2Cc2ccc(OCCN3CCCCC3)cc2)cc1 (stereo not drawn) [Example 7, 2-(4-Hydroxy-phenyl)-1-[4-(2-piperidin-1-yl-ethoxy)-benzyl)-1,2,3,4-tetrahydroquinolin-6-ol] | – | 477 | 219 | – | 28 | 17 | 0.4 | –
COc1ccc2c(c1)CCC(c1ccccc1)N2C(=O)c1ccc(OCCN2CCCCC2)cc1 (stereo not drawn) [Example 2] | – | – | – | – | −5 | 28 | – | B (B means < 50% inhibition at 1 micromolar)
Oc1ccc2c(c1)CCC(c1ccccc1)N2Cc1ccc(OCCN2CCCCC2)cc1 (stereo not drawn) [Example 8, 2-Phenyl-1-[4-(2-piperidin-1-yl-ethoxy)-benzyl]-1,2,3,4-tetrahydroquinolin-6-ol] | 4.1 | 532 | 28.4 | 716 | 31 | 63 | 1.3 | –
COc1ccc(C2CCc3cc(OC)ccc3N2C(=O)c2ccc(OCCN3CCCCC3)cc2)cc1 (stereo not drawn) [Example 1, [6-Methoxy-2-(4-methoxyphenyl)-3,4-dihydro-2H-quinolin-1-yl]-[4-4-(2-piperidin-1-yl-ethoxy)phenyl]methanone] | – | – | 22.9 | – | 18 | 18 | – | B^† (B means < 50% inhibition at 1 micromolar)
